In patent publication US11344630B2, “Methods and compositions for red-shifted chromophore substitution for optogenetic applications” (Washington University, priority 2014, dated 2022):
“Also recorded” adds a separate entry of the source. One block for each molecule: values may come before it.

Key:
optogenetic actuators = settings: replacing retinal with 3,4-didehydroretinal, in vitro; cited from earlier work
[1] = molecular target: T1, archaerhodopsin proton pump, AR-3 (Halorubrum sodomense, UniProt P96787); settings: cited from earlier work; for wavelength of half-maximal absorption on the red slope of the curve: AR-3 expressed in E. coli, chromophore as labelled
T1 construct: host or cells: E. coli
T1 sequence (P96787 7-258): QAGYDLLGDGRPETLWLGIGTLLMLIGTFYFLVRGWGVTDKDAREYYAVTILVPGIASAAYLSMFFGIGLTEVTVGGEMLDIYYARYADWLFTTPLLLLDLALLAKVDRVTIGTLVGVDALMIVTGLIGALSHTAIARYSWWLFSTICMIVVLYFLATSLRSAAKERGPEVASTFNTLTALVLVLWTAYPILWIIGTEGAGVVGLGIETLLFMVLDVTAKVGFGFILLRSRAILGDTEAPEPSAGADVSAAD

[2] = Absorbance spectra of retinoid HPLC peaks; assay type: physicochemical; settings: predominant retinoid species of zebrafish retina extracts, reduced with sodium borohydride
From the text: (§1) FIG. 1A, FIG. 1B, FIG. 1C, FIG. 1D, FIG. 1E, FIG. 1F, FIG. 1G, FIG. 1H, FIG. 1I, FIG. 1J and FIG. 1K depict images and graphs showing that diverse species employ a vitamin A1 to vitamin A2 switch to red-shift the spectral sensitivity of their photoreceptors. (FIG. 1A) Depicts the conversion of all-trans retinol (vitamin A1) into all-trans 3,4-didehydroretinol (vitamin A2). (FIG. 1B, FIG. 1C, FIG. 1D) Depict several species that switch between the use of vitamin A1 and vitamin A2 for vision at different stages of their life cycle. (FIG. 1B) Sea lamprey; (FIG. 1C) Coho salmon; and (FIG. 1D) Northern leopard frog. (FIG. 1E, FIG. 1F, FIG. 1G, FIG. 1H) depict graphs showing that thyroid hormone treatment of adult zebrafish induces quantitative conversion of retinol into 3,4-didehydroretinol. Adult zebrafish were treated with 300 μg/liter thyroid hormone (L-thyroxine) in their water for three weeks. The retinas were then harvested, and retinoid extracts were reduced with sodium borohydride and analyzed by HPLC. (FIG. 1E) Depicts the position of peak #1 in control zebrafish. (FIG. 1F) Depicts the position of peak #2 in TH-treated zebrafish. […] Note that only vitamin A1 and its derivatives (the retinal form has been reduced to the alcohol form) are detected in the ventral RPE whereas both vitamin A1 and vitamin A2 are present in nearly equal proportions in the dorsal RPE. […]

red single cones = assay: Suction electrode recordings of red single cones from wild-type and cyp27c1 mutant fish; assay type: in vivo; settings: cyp27c1 mutant zebrafish after thyroid hormone treatment
From the text: FIG. 11A and FIG. 11B depict graphs presenting suction electrode recordings of red single cones from wild-type and Cyp27c1 mutant fish. […] (FIG. 11A) Untreated wild-type and mutant zebrafish have similar sensitivity.
To continue to probe the effects of Cyp27c1, we generated cyp27c1 null mutant zebrafish. […] We then utilized the mutant zebrafish to identify their ability to covert retinol (A1) to 3,4-didehydroretinol (A2). […] Suction electrode recordings of red single cones from wild-type and cyp27c1 mutant fish were performed.

Opn1mw4 = assay: RNA-seq expression profiling of RPE samples from thyroid hormone-treated zebrafish (photoreceptor transcripts); assay type: in vivo; settings: thyroid hormone-treated 'RPE' samples vs controls
From the text: We therefore analyzed a range of photoreceptor gene transcripts in our thyroid hormone-treated ‘RPE’ and controls, and found similar levels of photoreceptor contamination between the two samples.

Cyp27c1 transcript = assay: RNA-seq expression profiling of RPE from thyroid hormone-treated zebrafish vs vehicle-treated controls; assay type: in vivo; settings: zebrafish treated 3 weeks with thyroid hormone vs vehicle-treated controls
From the text: FIG. 2A and FIG. 2B depict the results of RNA-seq-based expression profiling of zebrafish and bullfrog retinal pigment epithelium (RPE). (FIG. 2A) RNA-seq results comparing the expression levels of individual transcripts (shown as black circles) from RPE derived from zebrafish treated for 3 weeks with thyroid hormone and vehicle-treated controls. The location of the Cyp27c1 transcript is circled in red. (FIG. 2B) RNA-seq results comparing the expression levels of individual transcripts (shown as black circles) from dorsal and ventral bullfrog RPE. The location of the Cyp27c1 transcript is circled in red.
It has long been postulated that the conversion of retinal into 3,4-dehydroretinal in migratory fish is mediated by a ‘terminal ring dehydrogenase’^8. […] To identify the transcript encoding this enzyme, we carried out transcriptome profiling of thyroid hormone-treated fish and compared them to vehicle-treated controls. We hypothesized that the enzyme was likely to be expressed in one of three tissues: retinal pigment epithelium (which lies immediately adjacent to photoreceptors and is a known source of retinoids), retina or liver. We obtained RNA-seq data for RPE and identified an excellent candidate transcript, flj13639. This transcript encodes an ‘orphan’ member of the cytochrome P450 family of monooxygenases, Cyp27c1 (FIG. 2A). […]

adult zebrafish = assay: Thyroid hormone treatment of zebrafish, retinoid content of retinas by HPLC; assay type: in vivo
From the text: as §1

HEK293 cells = assay: Cyp27c1 expression in HEK293 cells incubated with retinol, retinoids by HPLC; assay type: cell-based, human; settings: transfected HEK293 cells incubated with retinol 24 hours, vs empty vector
Method: FIG. 5A, FIG. 5B, FIG. 5C, FIG. 5D and FIG. 5E depict the results of introducing an expression construct containing the zebrafish ortholog of Cyp27c1 into HEK293 cells and incubating with retinol for 24 hours (vitamin A1). […] (FIG. 5D, FIG. 5E) depicts the HPLC profile of commercially obtained chemical standards A1 (FIG. 5D) and A2 (FIG. 5E).
Next, we determined if Cyp27c1 is sufficient to convert retinal to 3,4-didehydroretinal. We cloned a full-length zebrafish Cyp27c1 cDNA and a full-length human Cyp27c1 cDNA into a mammalian expression vector and expressed it in HEK293 cells. FIG. 3 confirms that the recombinant zebrafish and human Cyp27c1 are expressed in the HEK293 cells.

Molecule: CC1=C(/C=C/C(C)=C/C=C/C(C)=C/C=O)C(C)(C)CC=C1 [3,4-didehydroretinal]
red-shift of action spectra (optogenetic actuators): greater than 30 nm
red-shift of wavelength of half-maximal absorption ([1]; 3,4-didehydroretinal in place of retinal in AR-3): 40 nm
wavelength of half-maximal absorption on the red slope of the curve [1]: 639 nm

absorbance maximum (peak) [2]: 355 nm
Molecule: CC1=C(/C=C/C(C)=C/C=C/C(C)=C/CO)C(C)(C)CC=C1 [3,4-didehydroretinol, all-trans 3,4-didehydroretinol]

Molecule: CC1=C(/C=C/C(C)=C/C=C/C(C)=C/C=O)C(C)(C)CCC1 [retinal, all-trans retinal]
wavelength of half-maximal absorption on the red slope of the curve [1]: 599 nm

absorbance maximum (peak) [2]: 326 nm
Molecule: CC1=C(/C=C/C(C)=C/C=C/C(C)=C/CO)C(C)(C)CCC1 [retinol, all-trans retinol]

Molecule: N[C@@H](Cc1cc(I)c(Oc2cc(I)c(O)c(I)c2)c(I)c1)C(=O)O [thyroid hormone, L-thyroxine]
red-shift of red cone sensitivity (red single cones): fail to red-shift
Opn1mw4 transcript upregulation (Opn1mw4): 4 fold
Cyp27c1 transcript expression level in RPE (Cyp27c1 transcript): markedly upregulated
HPLC profile of retinoids (adult zebrafish; thyroid hormone treated cyp27c1 null mutant zebrafish): only the presence of A1
conversion of retinal into 3,4-dehydroretinal (A1 to A2) in retinas (adult zebrafish; wild-type adult zebrafish, 300 μg/liter L-thyroxine in water, three weeks, HPLC): quantitative conversion of retinal into 3,4-dehydroretinal; also recorded: conversion of A1 to A2

B1: human Cyp27c1: cytochrome P450, family 27, subfamily C, polypeptide 1 encoded by the cyp27c1 gene from Homo sapiens (protein, UniProt Q4G0S4 81-542, looked up)
Cytochrome P450 27C1: ANLAEFFCRDGFSRIHEIQQKHTREYGKIFKSHFGPQFVVSIADRDMVAQVLRAEGAAPQRANMESWREYRDLRGRATGLISAEGEQWLKMRSVLRQRILKPKDVAIYSGEVNQVIADLIKRIYLLRSQAEDGETVTNVNDLFFKYSMEGVATILYESRLGCLENSIPQLTVEYIEALELMFSMFKTSMYAGAIPRWLRPFIPKPWREFCRSWDGLFKFSQIHVDNKLRDIQYQMDRGRRVSGGLLTYLFLSQALTLQEIYANVTEMLLAGVDTTSFTLSWTVYLLARHPEVQQTVYREIVKNLGERHVPTAADVPKVPLVRALLKETLRLFPVLPGNGRVTQEDLVIGGYLIPKGTQLALCHYATSYQDENFPRAKEFRPERWLRKGDLDRVDNFGSIPFGHGVRSCIGRRIAELEIHLVVIQLLQHFEIKTSSQTNAVHAKTHGLLTPGGPIHVRFVNRK
formation of 3,4-didehydroretinol (A2) from retinol (HEK293 cells): significant quantities of 3,4-didehydroretinol

B2: zebrafish Cyp27c1: cytochrome P450, family 27, subfamily C, polypeptide 1 encoded by the cyp27c1 gene from Danio rerio (protein, UniProt A8WGA0 1-540, looked up)
Cytochrome P450 27C1: MALQSTILHMARKNLLQESCRQLLIQTHGLHKSVASGSLEIAAHSQADLKEESAVSPAEEVQKAARVKSLKEMPGPSTVANLLEFFYRDGFSRIHEIQMEHAKKYGKIFKSRFGPQFVVSIADRDMVAQVLRSESATPQRGNMESWKEYRDLRGRSTGLISAEGDEWLKMRSVLRQLIMRPRDVAVFSSDVNDVVADLVKRVKTLRSQQDDSQTVLNINDLFFKYAMEGVATILYETRLGCLENEIPKMSQEYITALHLMFSSFKTTMYAGAIPKWLRPIIPKPWEEFCSSWDGLFKFSQIHVDKRLSEIKKQMEKSEEIKGGLLTHMLVTREMNLEEIYANMTEMLLAGVDTTSFTLSWSTYLLARHPTIQQQIFEEVDRVLGGRVPTGEDVPYLPLIRGLVKETLRLFPVLPGNGRVTHDDLIVGGYLIPKGTQLALCHYSTSMDEENFPRPEEFRPDRWIRKDASDRVDNFGSIPFGYGIRSCIGRRIAELEMHLALTQLLQNFHIEVSPQTTEVHAKTHGLLCPGASINLRFTDRK
formation of 3,4-didehydroretinol (A2) from retinol (HEK293 cells): significant quantities of 3,4-didehydroretinol
